Source: patent publication US20180092357A1, “SYNERGISTIC PRESERVATIVE COMPOSITIONS” (ISP Investments LLC, priority 2015, published 2018)
Values joined by “and” are separate entries in the source; they are usually repeats but may differ in a detail not shown here. Identical values can stand only once.

Legend:
Format in all cases: cell-based
S. aureus (ATCC 6538) = assay: MIC and synergy test (Kull method); conditions: compound or premix acting alone
Method: (§1) The cumulative synergistic activity of propylene carbonate, organic compounds/preservative compounds are performed against selected microbial strains.
(§2) Tryptic Soy Broth (TSB) media was used for bacterial evaluations and Yeast Malt Broth (YMB) for fungal evaluations. The compounds were added to the media and serially diluted. After serially diluting the media, 100 μl of a suspension of the testing bacteria or fungi were added to a final concentration of approximately […]. The inoculated media was then incubated at 32° C. for 2-5 days for bacteria or at 28° C. for 3-7 days for fungi.
(§3) The lowest concentration of each compound or mixture or compounds to inhibit visible growth was taken as the minimum inhibitory concentration (MIC). The MIC was taken as end points of activity. End points for the mixture of compound A (Propylene Carbonate) and compound B (organic compounds/conventional preservative) were then compared with the end points for the pure active ingredient alone.
(§4) Synergism was determined by a commonly used and accepted method described by Kull A. C.; Eisman, P. C.; Sylwestrowicz, H. D. and Mayer, R. L. 1961. Applied Microbiology, 9:538-541 using the ratio determine by:
(§5) • QA is the concentration of compound A in PPM, acting alone, which produced an end point. • Qa is the concentration of compound A in PPM, in the mixture, which produced an end point. • QB is the concentration of compound B in PPM, acting alone, which produced an end point. • Qb is the concentration of compound B in PPM, in the mixture, which produced an end point
(§6) When the sum of Qa/QA+Qb/QB is greater than one, antagonism is indicated. When the sum is equal to one, additive is indicated.
(§7) The results comprise following parameters: 1. Test organism (bacteria or fungi), 2. The end-point activity in % measured by MIC for the compound A alone (QA), for compound A in the mixture (Qa), for compound B alone (QB), for compound B in the mixture (Qb), 3. The ratio of Propylene carbonate or combinations of propylene carbonate and an organic compound (compound A) to organic compound (compound B) in that particular combination and the synergy index (SI) based on the formula SI=Qa/QA+Qb/QB.

B. cepacia (ATCC 25416) = assay: MIC and synergy test (Kull method); conditions: compound or premix acting alone
Method: as §1, §2, §3, §4, §5, §6, §7

E. coli (ATCC 8739) = assay: MIC and synergy test (Kull method); conditions: compound or premix acting alone
Method: as §1, §2, §3, §4, §5, §6, §7

[1] = tested on: A. brasilensis (ATCC 16404); assay: MIC and synergy test (Kull method); conditions: compound or premix acting alone
Method: as §1, §2, §3, §4, §5, §6, §7

[2] = tested on: P. aeruginosa (ATCC 9027); assay: MIC and synergy test (Kull method); conditions: compound or premix acting alone
Method: as §1, §2, §3, §4, §5, §6, §7

bacteria and fungi = assay: Antimicrobial and antifungal characteristics (MIC), general statement; conditions: alone
C. albicans (ATCC 10231) = assay: MIC and synergy test (Kull method)
Method: as §1, §2, §3, §4, §5, §6, §7

Row | Molecule | MIC of the compound acting alone (QA, QB) (S. aureus (ATCC 6538)) | MIC of the compound acting alone (QA, QB) (B. cepacia (ATCC 25416)) | MIC of the compound acting alone (QA, QB) (E. coli (ATCC 8739)) | MIC of the compound acting alone (QA, QB) [1] | MIC of the compound acting alone (QA, QB) [2] [%] | antimicrobial and antifungal characteristics (MIC) (bacteria and fungi) | MIC of the compound acting alone (QA, QB) (C. albicans (ATCC 10231)) [%]
1 | CC1CCC(C(C)C)C(O)C1 (racemic) [DLM, DL-Menthol] | 0.69% | 0.69% | 1.39% | – | – | – | –
2 | CCCCCCCC(=O)NO [CHA, Capryl Hydroxamic Acid] | 0.125% | – | 0.031% | 0.031% | – | – | –
3 | Cc1cc(O)ccc1C(C)C [DBL, O-cymen-5-ol] | – | – | 0.0625% | – | – | – | –
4 | CCCCCCCCC(O)CO (stereo not shown) [DD] | 0.0312% and 0.0156% | 0.0625% | 0.0625% and 0.0312% | 0.0156% and 0.008% | >2.5 | – | –
5 | CCCCC(O)CO (stereo not shown) [HD, 1,2-hexanediol] | 2.5% | 0.625% | 1.25% | 1.25% | 1.25 | – | –
6 | CCCCCCOCC(O)CO (stereo not shown) [HG, Hexylglycerine] | – | – | – | 0.156% | – | – | –
7 | CCCCCCC(O)CO (stereo not shown) [OD, 1,2 octanediol] | 0.625% | – | – | 0.312% | 0.625 | – | –
8 | CCC(=O)O [PA, Propionic Acid] | – | 0.20% | – | 0.078% | – | – | –
9 | CC1COC(=O)O1 (stereo not shown) [PC, Propylene Carbonate] | 12.5% and 3.12% and 6.25% | 3.12% and 1.56% | 3.12% and 1.56% and 6.25% | 1.56% and 3.12% and 0.78% | 3.12 | no significant antimicrobial and antifungal characteristics | 6.25
10 | OCCc1ccccc1 [PhA, Phenethyl Alcohol] | – | 0.156% | – | – | – | – | 0.625
11 | CCCCCCCCCCC=O [UND, Undecanal] | – | – | – | 1.25% | – | – | –
12 | Alkyl Glucoside [AG6206] | – | – | – | – | 3.12 | – | –
